Data: paper PMC5839409, “Targeting intracellular B2 receptors using novel cell-penetrating antagonists to arrest growth and induce apoptosis in human triple-negative breast cancer” (Oncotarget, 2018)
Where two headings read alike, the source gives them in different places. Square brackets hold non-standard residues; d marks the D form. Ends that are not written are not given here. Peptide text beside a SMILES is read from it. Oic = O=C(O)[C@@H]1C[C@@H]2CCCC[C@@H]2N1; Hyp = O=C(O)[C@@H]1C[C@@H](O)CN1; dTic = O=C(O)[C@H]1Cc2ccccc2CN1; 2Thi = N[C@@H](Cc1cccs1)C(=O)O

How the values were obtained:
MDA-MB-231 cells [1] = assay: Annexin V/PI apoptosis and beta-galactosidase senescence assays; type: cell-based, human
Protocol: The effect of B2RAs on cellular senescence was assessed using the Senescence β-Galactosidase Staining Kit (Cell Signaling). MDA-MB-231 cells were plated at 500 000 cells/well in 6-well plates, and serum-starved right before the beginning of treatments. Cells were treated with and without the B2RAs at the indicated concentrations for 72 h. At the end of treatment, surviving cells were fixed with 2% formaldehyde, 0.2% glutaraldehyde for 15 min at room temperature. Fixed cells were then washed and stained with fresh senescence-associated β-galactosidase stain solution (sodium phosphate buffer, pH 6.0, containing 1mg of X-gal (5-bromo-4-chloro-3-indolyl-β-d-galactopyranoside)/ml 40 mM citric acid, 5 mM potassium ferrocyanide, 5 mM potassium ferricyanide, 150 mM NaCl, 2 mM MgCl2) at 37°C. Staining was detected by light microscopy. As a positive control for senescence, we serum starved porcine cerebral microvascular endothelial cells (pCMVEC) (kindly provided by S Chemtob) for 48 h.
MDA-MB-231 and COS-1 cells were plated at 500,000/well in 6-well plates containing medium (10% FBS/DMEM), and allowed to adhere for about 18 h. On the next day, cells were serum-starved and then treated with and without the B2RAs at the indicated concentrations for 24 h. To assess induction of apoptosis due to treatment, we used the Annexin-V-FLUOS Staining kit (Roche) according to manufacturer’s specifications. Briefly, at the end of treatments, cells were harvested, rinsed and incubated in 100 µl of Annexin-V-FLUOS labeling solution (containing 2 µl of Annexin-V-Fluos reagent and 1 µl of PI (15 µg/ml)) for 15 min at room temperature. Cells were analyzed on a FACSCanto II flow cytometer (BD Biosciences). Early stage apoptosis was measured using annexin V-Fluos (RocheMolecular Biochemicals) in conjunction with PI (Sigma) to distinguish among early apoptosis and late apoptosis/necrosis. Bar diagram showing the distribution of early, late/necrotic cell populations.

MDA-MB-231 cells [2] = assay: Anchorage-dependent clonogenic assay; type: cell-based, human; settings: for colony formation (antagonist effect): 1 to 100 µM (FR173657 up to 25 µM), 10-14 days
Protocol: MDA-MB-231 cells were plated at 200 cells/well in a six-well dish in 2 ml DMEM medium containing 10% FBS. […] After 10 to 14 days, colonies were fixed and stained with 0.5% methylene blue in 50% ethanol. Excess of staining solution was removed carefully with tap water and the plates were dried overnight. Colony counting and densitometric analyses (to measure total colony numbers and surface areas) were performed using the Image Pro Plus 5.1 software.

MDA-MB-231 cells [3] = assay: MTT cytotoxicity (cell viability) assay; type: cell-based, human; settings: for cytotoxic effect: at a concentration of 100 µM
Protocol: (§1) Cell proliferation assay on MDA-MB-231 cells was determined with colorimetric MTT as we described. Briefly, cells were seeded in a 96 wells plate at 2,000 cells/well in DMEM media supplemented with 10% FBS for 24h at 37°C. Cells were then incubated with and without the B2RAs at the indicated concentrations for the time shown. At the end of treatment period, MTT (0.25 mg/ml) was added to the cells and incubated for 1h30 at 37°C. Thereafter, the cell medium was removed, the formazan product solubilized in acidified isopropanol (100 µl of 1N HCl/anhydrous isopropanol 1:25) and the absorbance determined at 570 nm with an ELISA microplate reader (Spectra Max Plus, Molecular Devices, Sunnyvale, CA). For assessing the cytotoxicity of B2RAs and chemotherapeutic agents (carmustine, doxorubicin, carboplatin, temozolomide and paclitaxel), cells were grown to confluency in multi-well plates and exposed to starving media (DMEM without FBS) for 24h before beginning of the antagonist treatment. Cells were then incubated with MTT and treated exactly as described above. Cell viability was expressed as a percentage of optical density (OD) values obtained upon treatment relative to control.

MDA-MB-231 cells [4] = assay: Western blot of cell cycle, apoptosis and p38 proteins; type: cell-based, human
Protocol: For western blot analysis, appropriate amount of cell lysates or membrane and nuclear fractions (25–50 µg protein) were denatured, resolved on 9–12% SDS–PAGE and electrotransferred onto PVDF membranes. Blots were blocked using 5% nonfat dry milk and probed using appropriate primary antibodies in blocking buffer overnight at 4°C.

MDA-MB-231 cells [5] = assay: Cellular incorporation of B2RAs by LC-MS/MS; settings: 2.5 µM antagonist, 37°C
Protocol: Permeability of MDA-MB-231 cells to B2RAs was evaluated by either confocal microscopy or LC-MS/MS analyses. […] Mass spectrometry. […] At the end of treatments, cells underwent an acid wash to facilitate the release of surface bound ligands. Cell contents were released from hypotonic lysis using a 40:60 mixture of 15 mM Tris-HCl pH 7.4 / methanol. Cell lysates were next sonicated and subjected to protein precipitation following addition of 0.1% v/v formic acid. Precipitated proteins were removed by centrifugation and supernatants were concentrated using a Speedvac centrifugal evaporator. The sample was subjected to quantification using LC-MS/MS on a triple quadrupole mass spectrometer (Agilent G6410B). A calibration curve made from nine different concentrations of the reference compounds dissolved in suitable HPLC mobile phase solvents, was used to estimate antagonist intracellular content in each sample. The limit of quantification was 75 fmol (1 nM/75 µl).

MDA-MB-231 cells [6] = assay: Drug-drug synergy experiments (MTT, combination index); type: cell-based, human; settings: IC25 ratios, 72h, CalcuSyn
Protocol: Interactions (synergy, additive, antagonistic activities) between CP-B2RAs (FR173657 and NG68) and chemotherapeutic drugs (doxorubicin and paclitaxel) were evaluated using MTT standard assays. Twenty-four hours after seeding, cells were treated with CP-B2RAs, the other testing drug, or in combination. For combination testing, CP-B2RAs or the other testing drugs were added to plate in triplicate wells in ratios of IC25 (IC25A: IC25B), and cells are incubated in drug-treated medium for 72h and cell viability determined by MTT. Synergy was determined by calculating combination index (CI) value with the formula CI = (CA,X / ICx,A) + (CB,X / ICx,B), where CA,X and CB,X are concentrations of drug A and drug B used in combination to achieve x% drug effect. ICx,A and ICx,B are concentrations for single agents to achieve the same effect. A CI of less than, equal to, and more than 1 indicates synergy, additivity, and antagonism, respectively.

MDA-MB-231 cells [7] = assay: PI staining cell cycle analysis by flow cytometry; type: cell-based, human; settings: 24 h treatment; HOE 140 up to 100 μM
Protocol: MDA-MB-231 were plated at 500,000/plate in 10 cm plates containing medium (10% FBS/DMEM), and allowed to adhere for about 18 h. Thereafter, cells were serum-starved and treated with and without the B2RAs at the indicated concentrations for 24 h. At the end of treatments, cells were harvested, rinsed and fixed with ice cold ethanol 95%, for 2 h at 4°C. Fixed cells were rehydrated with 800 µl PBS for 30 min, and then washed again with PBS to remove all traces of ethanol. Cells were treated with RNase for 30 min prior to staining. PI was added to cell suspension at a concentration of 15 µg/ml and incubated overnight at 4°C. PI staining was assessed by flow cytometry using a FACSCanto II flow cytometer (BD Biosciences).

[8] = Distribution coefficient n-octanol/PBS pH 7.4, shake flask
Protocol: Equal volumes of octanol and PBS (137 mM NaCl, 2.7 mM KCl, 10 mM Na2HPO4, 2 mM KH2PO4, pH 7.4), were mixed and allowed to equilibrate for 24h. The layers were then separated and stored at 4°C. At testing, the compounds (200 µM) was added to 200 µl of aqueous phase and mixed with an equal volume of octanol by vortexing for 2 min. The octanol/buffer solution was centrifuged for 5 min at 1000 x g. After separation into aqueous and octanol phases, compound content of the aqueous and octanol phases was quantified by RP-HPLC (Agilent1100 series). […] All octanol/buffer distribution studies were performed in duplicate. The octanol/buffer coefficient was calculated as the ratio of octanol layer to the buffer layer.

MDA-MB-231 cells [9] = assay: MTT proliferation assay; type: cell-based, human; settings: B2R shRNA knockdown MDA-MB-231 cells vs scrambled shRNA
Protocol: as §1

[10] = Homo sapiens, MDA-MB-231, MTT assay after 72h drug exposure, means ± s.e.m., n = 6 to 8, read-out: IC50 values (cytocidal activity)
[11] = 24h treatment, whole-cell lysates

**Q.** For “DTat: vector alone; modified HIV-1 Tat peptide sequence GRKKRRQRRR in D-configuration (G[dR][dK][dK][dR][dR][dQ][dR][dR][dR])”, which “intrinsic activity of vector alone” value (MDA-MB-231 cells [1]; up to 100 μM, in any of the above assays) is on record?
**A.** The value was “did not exhibit intrinsic activity”.

**Q.** With C[S+]([O-])c1ccc(-c2nc(-c3ccncc3)c(-c3ccc(F)cc3)[nH]2)cc1 (stereo not drawn) [SB203580] as the compound, how does the “clonogenicity, inhibitor alone” value (MDA-MB-231 cells [2]; 10 µM, 14 days) read?
**A.** The value was “had no effect”.

**Q.** Which results are given for N.N.O=C([O-])C1(C(=O)[O-])CCC1.[Pt+2] [Carboplatin]?
**A.** IC50 (MDA-MB-231 cells [3]; MTT assay after 72h drug exposure, means ± s.e.m., n = 6 to 8, read-out: IC50 values (cytocidal activity)): > 100 µM; cytotoxic effect (MDA-MB-231 cells [3]): did not show significant cytotoxic effect

**Q.** For O=NN(CCCl)C(=O)NCCCl [BCNU (carmustine), carmustine], which IC50 (MDA-MB-231 cells [3]; [10]) is on record?
**A.** Its IC50 is 62 ± 1 µM.

**Q.** Which IC50 (MDA-MB-231 cells [3]; [10]) does the source give for CC(=O)O[C@H]1C(=O)[C@@]2(C)[C@H]([C@H](OC(=O)c3ccccc3)[C@]3(O)C[C@H](OC(=O)[C@H](O)[C@@H](NC(=O)c4ccccc4)c4ccccc4)C(C)=C1C3(C)C)[C@]1(OC(C)=O)CO[C@@H]1C[C@@H]2O [Paclitaxel (Taxol), Paclitaxel] here?
**A.** Its IC50 is 10 ± 1 µM.

**Q.** Which “colony formation (antagonist effect)” value (MDA-MB-231 cells [2]) does the source give for N=C(N)NCCC[C@H](NC(=O)[C@@H]1C[C@@H]2CCCC[C@@H]2N1C(=O)[C@H]1Cc2ccccc2CN1C(=O)[C@H](CO)NC(=O)[C@H](Cc1cccs1)NC(=O)CNC(=O)[C@@H]1C[C@@H](O)CN1C(=O)[C@@H]1CCCN1C(=O)[C@H](CCCNC(=N)N)NC(=O)[C@@H](CCCNC(=N)N)NC(=O)CNC(=O)CNC(=O)CNC(=O)[C@@H](CCCNC(=N)N)NC(=O)[C@@H](CCCNC(=N)N)NC(=O)[C@@H](CCCNC(=N)N)NC(=O)[C@@H](CCC(N)=O)NC(=O)[C@@H](CCCNC(=N)N)NC(=O)[C@@H](CCCNC(=N)N)NC(=O)[C@@H](CCCCN)NC(=O)[C@@H](CCCCN)NC(=O)[C@@H](CCCNC(=N)N)NC(=O)CN)C(=O)O [D-Tat-HOE 140 (NG68)] (H-G[dR][dK][dK][dR][dR][dQ][dR][dR][dR]GGG[dR]RP[Hyp]G[2Thi]S[dTic][Oic]R-OH; N-terminus and C-terminus assumed) here?
**A.** The value was “concentration-responsive clonal repression”.

**Q.** And the “expression of BAD and p27Kip1” value (MDA-MB-231 cells [4]; [11])?
**A.** Its value is “increased expression”.

**Q.** And the “levels of MAPK and cyclin A” value (MDA-MB-231 cells [4]; [11])?
**A.** The value was “decreased the levels of MAPK and cyclin A”.

**Q.** What about the “phosphorylation of p38” value (MDA-MB-231 cells [4]; over time) of the same compound?
**A.** Its value is “significantly increased the phosphorylation”.

**Q.** What about the Cellular incorporation (MDA-MB-231 cells [5]; 15 min) of the same compound?
**A.** Its Cellular incorporation is 5 pmol/10^6 cells.

**Q.** And the Cellular incorporation (MDA-MB-231 cells [5]; 4 h)?
**A.** Its Cellular incorporation is 14 pmol/10^6 cells.

**Q.** What about the “combination index (CI)” value (MDA-MB-231 cells [6]; combination with doxorubicin) of the same compound?
**A.** The value was “below 1”.

**Q.** And the “combination index (CI)” value (MDA-MB-231 cells [6]; combination with paclitaxel)?
**A.** Its value is roughly 1.

**Q.** And the cell cycle distribution (MDA-MB-231 cells [7])?
**A.** The cell cycle distribution was “tend to induce G0/G1 cell cycle arrest”.

**Q.** And the logD ([8]; pH 7.4, Distribution coefficient log D, n-octanol/PBS (pH 7.4), shake flask, RP-HPLC quantification)?
**A.** Its logD is -3.02.

**Q.** And the “induction of apoptosis / senescence” value (MDA-MB-231 cells [1]; Annexin V and active caspase-3 positivity 24h, β-galactosidase 72h)?
**A.** The value was “underwent apoptosis, but not senescence”.

**Q.** And the “cytostatic activity after B2R downregulation” value (MDA-MB-231 cells [9])?
**A.** Its value is “significantly attenuated”.

**Q.** For C[C@H](CCC(=O)N[C@H](CCCNC(=N)N)C(=O)N[C@@H](CCCNC(=N)N)C(=O)N1CCC[C@H]1C(=O)N1C[C@H](O)C[C@H]1C(=O)NCC(=O)N[C@@H](Cc1cccs1)C(=O)N[C@@H](CO)C(=O)N1Cc2ccccc2C[C@@H]1C(=O)N1[C@H](C(=O)N[C@@H](CCCNC(=N)N)C(=O)O)C[C@@H]2CCCC[C@@H]21)[C@H]1CC[C@H]2[C@@H]3[C@H](O)C[C@@H]4C[C@H](O)CC[C@]4(C)[C@H]3C[C@H](O)[C@]12C [Cholic-HOE 140 (NG134)], which “colony formation (antagonist effect)” value (MDA-MB-231 cells [2]) is on record?
**A.** Its value is “concentration-responsive clonal repression”.

**Q.** What about the Cellular incorporation (MDA-MB-231 cells [5]; 15 min) of the same compound?
**A.** The Cellular incorporation was 13 pmol/10^6 cells.

**Q.** And the Cellular incorporation (MDA-MB-231 cells [5]; 4 h)?
**A.** The Cellular incorporation was 22 pmol/10^6 cells.

**Q.** And the IC50 (MDA-MB-231 cells [3]; 72 h)?
**A.** The IC50 was greater than 100 µM.

**Q.** For COc1cccc2c1C(=O)c1c(O)c3c(c(O)c1C2=O)C[C@@](O)(C(=O)CO)C[C@@H]3O[C@H]1C[C@H](N)[C@H](O)[C@H](C)O1 [Adriamycin (doxorubicin), doxorubicin], which IC50 (MDA-MB-231 cells [3]; [10]) is on record?
**A.** Its IC50 is 2 ± 1 µM.

**Q.** With NC(N)=NCCC[C@@H](N)C(=O)N[C@@H](CCCN=C(N)N)C(=O)N1CCC[C@H]1C(=O)N1C[C@H](O)C[C@H]1C(=O)NCC(=O)N[C@@H](Cc1cccs1)C(=O)N[C@@H](CO)C(=O)N1Cc2ccccc2C[C@@H]1C(=O)N1[C@H](C(=O)N[C@@H](CCCN=C(N)N)C(=O)O)C[C@@H]2CCCC[C@@H]21 [HOE 140] as the compound, how does the Cellular incorporation (MDA-MB-231 cells [5]; 15 min) read?
**A.** The Cellular incorporation was 0 pmol/10^6 cells.

**Q.** What about the Cellular incorporation (MDA-MB-231 cells [5]; 4 h) of the same compound?
**A.** The Cellular incorporation was 0 pmol/10^6 cells.

**Q.** And the Cellular incorporation (MDA-MB-231 cells [5]; 24 h)?
**A.** The Cellular incorporation was 0 pmol/10^6 cells.

**Q.** And the logD ([8]; pH 7.4)?
**A.** Its logD is -3.06.

**Q.** And the IC50 (MDA-MB-231 cells [3]; 72 h)?
**A.** The IC50 was greater than 100 µM.

**Q.** Which results are given for Cn1nnc2c(C(N)=O)ncn2c1=O [Temozolomide (Temodar), Temozolomide]?
**A.** IC50 (MDA-MB-231 cells [3]; [10]): > 100 µM; cytotoxic effect (MDA-MB-231 cells [3]): did not show significant cytotoxic effect
